The values that follow come from patent publication US9132127B2, “Substituted pyrido[2,3-B]pyrazines as IP receptor agonists” (Novartis AG, priority 2010, dated 2015).

In this assay the target is T1, IP receptor (Homo sapiens, UniProt P43119).
T1 construct: expressed in transfected cells; host or cells: CHO cells stably expressing the IP receptor (CHO-IP)
Put plainly: cAMP accumulation in CHO cells stably expressing the IP receptor (CHO-IP), PerkinElmer AlphaScreen assay. The assay is classed as cell-based. The protocol: Activity of compounds at the IP receptor (IP receptor) is assessed by measuring cAMP accumulation in CHO cells stably expressing the IP receptor (CHO-IP) using the PerkinElmer AlphaScreen assay. This technology measures the endogenous production of cAMP, in a non-radioactive luminescence proximity homogenous assay. A biological reaction occurs between streptavidin coated donor beads, biotinylated cAMP and anti-cAMP acceptor beads, bringing the donor and acceptor beads close enough together so that upon excitation a fluorescence signal is produced. On production of endogenous cAMP, competition between the biotinylated cAMP and cellular-derived cAMP causes a reduction in the fluorescent signal. The reduction in signal is proportional to the amount of cAMP being produced, thus it is possible to quantify the amount of cAMP being produced on stimulation with agonist.
Test and reference compounds are prepared at 100×[final] in 100% DMSO, and diluted 1:3 using a Biomek Fx (Beckman Coulter). This is followed by an intermediate dilution to give 5×[final] in assay buffer (HBSS containing 5 mM HEPES, 0.1% (w/v) BSA). 5 μL of 5×[final] test compounds, reference compounds and buffer/DMSO control are then transferred to a 384-well white OptiPlate, containing 20 μL CHO—IP cell suspension (15,000 cells/well, prepared from frozen), and plate is incubated at room temperature for 1 hour. A cAMP standard curve is constructed for each experiment (concentration range of 10000 nM to 0.001 nM, in assay buffer) and 25 μL of each concentration added to the last two columns of the assay plate. The incubation is terminated by the addition of lysis buffer (dH2O; 0.3% (v v^−1) Tween-20) containing 20 units mL^−1 streptavidin coated donor beads and biotinylated cAMP (pre-incubated for 30 minutes) and 20 units mL^−1 anti-cAMP acceptor beads, which are added to the lysis buffer just before addition to the assay plate. The assay plate is then incubated at room temperature in the dark, for 60 minutes with gentle shaking, and read on the Envision plate reader (Perkin Elmer).
The raw data of the reference compounds, test compounds and controls are converted into cAMP concentrations, using the cAMP standard curve, in GraphPadPrism (GraphPad Software Inc). EC50 as well as maximal values of the agonist curves are determined using a 4-parameter logistic equation. The % maximum response values of all test compounds are determined using the top of the treprostinil concentration-response curve.
Background: cAMP levels reflect the balance of adenylyl cyclase and phosphodiesterase activity.

Where [1] appears, read: 1 hour at room temperature, Table 1, read-out: EC50.
The mark [2] stands for this setting: read-out: EC50 values in the data measurements described above.

Like-named read-outs stand apart in the source and are kept apart here. Bounds are passed on as bounds.

T1 sequence (P43119 whole entry): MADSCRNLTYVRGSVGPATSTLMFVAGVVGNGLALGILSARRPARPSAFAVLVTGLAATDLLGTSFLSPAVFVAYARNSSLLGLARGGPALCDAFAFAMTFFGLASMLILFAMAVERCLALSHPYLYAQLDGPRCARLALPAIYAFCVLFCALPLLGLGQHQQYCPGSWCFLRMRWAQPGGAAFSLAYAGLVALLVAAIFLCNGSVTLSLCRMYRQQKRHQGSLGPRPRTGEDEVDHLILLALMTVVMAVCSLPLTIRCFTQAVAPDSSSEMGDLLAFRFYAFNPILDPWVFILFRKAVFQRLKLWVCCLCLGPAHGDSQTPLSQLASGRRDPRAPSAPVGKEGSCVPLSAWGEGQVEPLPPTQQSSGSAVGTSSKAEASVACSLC

As to `Cc1ccc(-c2nc3c(nc2-c2ccc(C)cc2)N(CCCC(O)C(O)CC(=O)O)CCC3)cc1` (racemic) [Example 15.1, rac-7-(2,3-Dip-tolyl-7,8-dihydropyrido[2,3-b]pyrazin-5(6H)-yl)-3,4-dihydroxyheptanoic acid], the EC50 (commonly the midpoint of the concentration-response curve) under setting [1] came out at 57 nM.

Consider `CN1c2nc(-c3ccccc3)c(-c3ccccc3)cc2CCC1CCCCCC(=O)O` (single isomer, unassigned) [Example 2.1, 6-(1-methyl-6,7-diphenyl-1,2,3,4-tetrahydro-1,8-naphthyridin-2-yl)hexanoic acid], for which the EC50 under setting [1] is 30 nM.

As to `CN1c2nc(-c3ccccc3)c(-c3ccccc3)cc2CCC1CCCCCC(=O)O` (single isomer, unassigned) [Example 2.2, 6-(1-methyl-6,7-diphenyl-1,2,3,4-tetrahydro-1,8-naphthyridin-2-yl)hexanoic acid], the concentration giving a half-maximal response (EC50) under setting [1] is 100 nM.

Consider `CC1CCc2cc(-c3ccccc3)c(-c3ccccc3)nc2N1CCCCCCC(=O)O` (single isomer, unassigned) [Example 3.1, 7-(2-methyl-6,7-diphenyl-3,4-dihydro-1,8-naphthyridin-1(2H)-yl)heptanoic acid], for which the half-maximal effective concentration (EC50) under setting [1] stood at 36 nM.

On to `CC1CCc2cc(-c3ccccc3)c(-c3ccccc3)nc2N1CCCCCCC(=O)O` (single isomer, unassigned) [Example 3.2, 7-(2-methyl-6,7-diphenyl-3,4-dihydro-1,8-naphthyridin-1(2H)-yl)heptanoic acid], for which, under setting [1], the EC50 was found to be 245 nM.

Regarding `Cc1ccc(-c2nc3c(nc2-c2ccc(C)cc2)N(CCCCCCC(=O)O)C(C)CC3)cc1` (single isomer, unassigned) [Example 4.14, 7-(6-methyl-2,3-dip-tolyl-7,8-dihydropyrido[2,3-b]pyrazin-5(6H)-yl)heptanoic acid], under setting [1], the EC50 was 0.13 nM.

In the case of `Cc1ccc(-c2nc3c(nc2-c2ccc(C)cc2)N(CCCCCCC(=O)O)C(C)CC3)cc1` (single isomer, unassigned) [Example 4.15, 7-(6-methyl-2,3-dip-tolyl-7,8-dihydropyrido[2,3-b]pyrazin-5(6H)-yl)heptanoic acid], the EC50 under setting [1] was 0.48 nM.

Take `Cc1ccc(-c2nc3c(nc2-c2ccc(C)cc2)N(CCCCCCC(=O)O)CC(O)C3O)cc1` (single isomer, unassigned) [Example 8.2a, 7-(7,8-dihydroxy-2,3-dip-tolyl-7,8-dihydropyrido[2,3-b]pyrazin-5(6H)-yl)heptanoic acid]: the EC50 under setting [1] is 0.49 nM.

For the compound `Cc1ccc(-c2nc3c(nc2-c2ccc(C)cc2)N(CCCCCCC(=O)O)CC(O)C3O)cc1` (single isomer, unassigned) [Example 8.2b, 7-(7,8-dihydroxy-2,3-dip-tolyl-7,8-dihydropyrido[2,3-b]pyrazin-5(6H)-yl)heptanoic acid], the EC50 under setting [1] amounted to 0.89 nM.

Turning to `Cc1ccc(-c2nc3c(nc2-c2ccc(C)cc2)N(CCCCCCC(=O)O)CCC3O)cc1` (single isomer, unassigned) [Example 9.8, rac-7-(8-Hydroxy-2,3-dip-tolyl-7,8-dihydropyrido[2,3-b]pyrazin-5(6H)-yl)heptanoic acid], under setting [1], the 50% effective concentration (EC50) worked out at 0.296 nM.

Take `Cc1ccc(-c2nc3c(nc2-c2ccc(C)cc2)N(CCCCCCC(=O)O)CCC3O)cc1` (single isomer, unassigned) [Example 9.8a, 7-(8-Hydroxy-2,3-dip-tolyl-7,8-dihydropyrido[2,3-b]pyrazin-5(6H)-yl)heptanoic acid]: the EC50 under setting [1] came to 0.4 nM.

With `Cc1ccc(-c2nc3c(nc2-c2ccc(C)cc2)N(CCCCCCC(=O)O)CCC3O)cc1` (single isomer, unassigned) [Example 9.8b, 7-(8-Hydroxy-2,3-dip-tolyl-7,8-dihydropyrido[2,3-b]pyrazin-5(6H)-yl)heptanoic acid], the half-maximal effective concentration (EC50) under setting [1] came out at 1.8 nM.

Take `Cc1ccc(-c2nc3c(nc2-c2ccc(C)cc2)N(CCCCCCC(=O)O)CC(O)C3)cc1` (single isomer, unassigned) [Example 14.1, 7-(7-hydroxy-2,3-dip-tolyl-7,8-dihydropyrido[2,3-b]pyrazin-5(6H)-yl)heptanoic acid]: the EC50 under setting [1] came out at 0.0718 nM.

For the compound `Cc1ccc(-c2nc3c(nc2-c2ccc(C)cc2)N(CCCCCCC(=O)O)CC(O)C3)cc1` (single isomer, unassigned) [Example 14.2, 7-(7-hydroxy-2,3-dip-tolyl-7,8-dihydropyrido[2,3-b]pyrazin-5(6H)-yl)heptanoic acid], the EC50 under setting [1] was 0.0627 nM.

For the compound `COC1Cc2nc(-c3ccc(C)cc3)c(-c3ccc(C)cc3)nc2N(CCCCCCC(=O)O)C1` (single isomer, unassigned) [Example 17.1a, 7-(7-methoxy-2,3-dip-tolyl-7,8-dihydropyrido[2,3-b]pyrazin-5(6H)-yl)heptanoic acid], under setting [1], the EC50 amounted to 3 nM.

In the case of `COC1Cc2nc(-c3ccc(C)cc3)c(-c3ccc(C)cc3)nc2N(CCCCCCC(=O)O)C1` (single isomer, unassigned) [Example 17.1b, 7-(7-methoxy-2,3-dip-tolyl-7,8-dihydropyrido[2,3-b]pyrazin-5(6H)-yl)heptanoic acid], under setting [1], the EC50 was 4.8 nM.

For `O=C(O)CCCCN1CCCc2cc(-c3ccccc3)c(-c3ccccc3)nc21` [5-(6,7-diphenyl-3,4-dihydro-1,8-naphthyridin-1(2H)-yl)pentanoic acid], under setting [2], the concentration giving a half-maximal response (EC50) is over 10000 nM.

On to `O=C(O)CCCCCCN1CCCc2cc(-c3ccccc3)c(-c3ccccc3)nc21` [Example 1.1, 7-(6,7-Diphenyl-3,4-dihydro-1,8-naphthyridin-1(2H)-yl)heptanoic acid], for which the EC50 under setting [1] stood at 5.5 nM.

Regarding `O=C(O)CCCCCCN1CCCc2nc(-c3ccccc3)c(-c3ccccc3)nc21` [Example 4.1, 7-(2,3-diphenyl-7,8-dihydropyrido[3,2-b]pyrazin-5(6H)-yl)heptanoic acid], the 50% effective concentration (EC50) under setting [1] amounted to 1.2 nM.

Turning to `Cc1ccc(-c2nc3c(nc2-c2ccc(C)cc2)N(CCCCCCC(=O)O)CCC3)cc1` [Example 4.3, 7-(2,3-Dip-tolyl-7,8-dihydropyrido[2,3-b]pyrazin-5(6H)-yl)heptanoic acid], the half-maximal effective concentration (EC50) under setting [1] came to 0.11 nM.

Regarding `Cc1ccc(-c2nc3c(nc2-c2ccccc2)CCCN3CCCCCCC(=O)O)cc1` [Example 5.2, 7-(2-Phenyl-3-p-tolyl-7,8-dihydropyrido[2,3-b]pyrazin-5(6H)-yl)heptanoic acid], under setting [1], the 50% effective concentration (EC50) is 0.08 nM.

For `Cc1ccc(-c2nc3c(nc2-c2ccc(C)c(F)c2)N(CCCCCCC(=O)O)CCC3)cc1F` [Example 6.1, 7-(2,3-bis(3-Fluoro-4-methylphenyl)-7,8-dihydropyrido[2,3-b]pyrazin-5(6H)-yl)heptanoic acid], the 50% effective concentration (EC50) under setting [1] stood at 0.32 nM.

Consider `O=C(O)CCCCCCN1CC[C@@H](O)c2nc(-c3ccccc3)c(-c3ccccc3)nc21` [Example 9.1, (R)-7-(8-Hydroxy-2,3-diphenyl-7,8-dihydropyrido[2,3-b]pyrazin-5(6H)-yl)heptanoic acid], for which the EC50 under setting [1] is 5.6 nM.

`O=C(O)CCCCCCN1CC[C@H](O)c2nc(-c3ccccc3)c(-c3ccccc3)nc21` [Example 9.2, (S)-7-(8-Hydroxy-2,3-diphenyl-7,8-dihydropyrido[2,3-b]pyrazin-5(6H)-yl)heptanoic acid]: the EC50 under setting [1] amounted to 8.6 nM.

With `Cc1ccc(-c2nc3c(nc2-c2ccc(C)cc2)N(CCCCCCC(=O)O)C(=O)CC3)cc1` [Example 12.1, 7-(6-oxo-2,3-dip-tolyl-7,8-dihydropyrido[2,3-b]pyrazin-5(6H)-yl)heptanoic acid], the concentration giving a half-maximal response (EC50) under setting [1] turned out to be 0.0754 nM.

In the case of `Cc1ccc(-c2nc3c(nc2-c2ccc(C)cc2)N(CCCCCCC(=O)O)C(=O)C(O)C3)cc1` (stereo not shown) [Example 16.1, 7-(7-Hydroxy-6-oxo-2,3-dip-tolyl-7,8-dihydropyrido[2,3-b]pyrazin-5(6H)-yl)heptanoic acid], the EC50 under setting [1] was 0.74 nM.

On to `CCCc1ccc(-c2nc3c(nc2-c2ccc(CCC)cc2)N(CCCCCC(=O)OCC)CCC3)cc1` [ethyl 6-(2,3-bis(4-propylphenyl)-7,8-dihydropyrido[2,3-b]pyrazin-5(6H)-yl)hexanoate], for which, under setting [2], the concentration giving a half-maximal response (EC50) is over 10000 nM.

Take `CCOC(=O)CCCCCCN1CCCc2nc(-c3cccc(C)c3)c(-c3ccc(C)cc3)nc21` [ethyl 7-(2-(m-tolyl)-3-(p-tolyl)-7,8-dihydropyrido[2,3-b]pyrazin-5(6H)-yl)heptanoate]: the EC50 under setting [2] was over 10000 nM.
